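Protocol summary: plate cells (96-well), add compound at 5 concentrations, incubate 48 h, interpolate endpoints linearly. GI50 = concentration required for 50% inhibition of growth. TGI: concentration producing complete growth inhibition.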
Key:
Test in all cases: growth of human tumour cells (NCI), 48 h
[1] = system: HCC-2998 colon
[2] = system: HL-60(TB) leukemia
[3] = system: UACC-257 melanoma
[4] = system: PC-3 prostate
[5] = system: NCI/ADR-RES ovarian
[6] = system: ACHN renal
[7] = system: TK-10 renal
[8] = system: NCI-H522 lung
[9] = system: SF-539 CNS
[10] = system: HCT-15 colon
[11] = system: 786-0 renal
[12] = system: IGROV1 ovarian
[13] = system: SW-620 colon
[14] = system: OVCAR-8 ovarian
[15] = system: DU-145 prostate
[16] = system: MALME-3M melanoma
[17] = system: HOP-92 NSCLC
[18] = system: SK-OV-3 ovarian
[19] = system: NCI-H226 lung
[20] = system: RPMI-8226 leukemia
[21] = system: T-47D breast
[22] = system: HCT-116 colon
[23] = system: MCF7 breast
[24] = system: OVCAR-3 ovarian
[25] = system: MDA-MB-231 breast
[26] = system: BT-549 breast
[27] = system: A498 renal
[28] = system: NCI-H23 lung
[29] = system: KM12 colon
[30] = system: SR leukemia
[31] = system: RXF 393 renal
[32] = system: UACC-62 melanoma
[33] = system: CCRF-CEM leukemia
[34] = system: SK-MEL-2 melanoma
[35] = system: SF-268 CNS
[36] = system: HT29 colon
[37] = system: OVCAR-4 ovarian
[38] = system: UO-31 renal
[39] = system: SF-295 CNS
[40] = system: EKVX NSCLC
[41] = system: MOLT-4 leukemia
[42] = system: OVCAR-5 ovarian
[43] = system: SK-MEL-5 melanoma
[44] = system: CAKI-1 renal
[45] = system: SN12C renal
[46] = system: SNB-19 CNS
[47] = system: A549 NSCLC
[48] = system: SK-MEL-28 melanoma
[49] = system: COLO 205 colon
[50] = system: NCI-H460 lung
[51] = system: SNB-75 CNS
[52] = system: HS 578T breast
[53] = system: U251 CNS
[54] = system: LOX IMVI melanoma
[55] = system: K-562 leukemia
[56] = system: MDA-MB-435
[57] = system: HOP-62 NSCLC
[58] = system: M14 melanoma

Cn1c(=O)n(CCCO)c(=O)c2c1nc(Oc1cccc(OC(F)(F)F)c1)n2Cc1ccc(Cl)cc1
GI50 [1]: 15 µM
TGI [1]: 33.9 µM
GI50 [2]: 5.78 µM
TGI [2]: 22.9 µM
GI50 [3]: 17.5 µM
TGI [3]: 34.5 µM
GI50 [4]: 13.7 µM
TGI [4]: 29.3 µM
GI50 [5]: 11.4 µM
TGI [5]: 33.4 µM
GI50 [6]: 10.7 µM
TGI [6]: 23.4 µM
GI50 [7]: 14.7 µM
TGI [7]: 30.1 µM
GI50 [8]: 6.06 µM
TGI [8]: 23.2 µM
GI50 [9]: 12.9 µM
TGI [9]: 26.9 µM
GI50 [10]: 10.2 µM
TGI [10]: 28.7 µM
GI50 [11]: 12.5 µM
TGI [11]: 27.4 µM
GI50 [12]: 14.2 µM
TGI [12]: 31.9 µM
GI50 [13]: 13.1 µM
TGI [13]: 31.2 µM
GI50 [14]: 14.4 µM
TGI [14]: 37.6 µM
GI50 [15]: 13.2 µM
TGI [15]: 27.5 µM
GI50 [16]: 15.7 µM
TGI [16]: 31.6 µM
GI50 [17]: 11 µM
TGI [17]: 24.5 µM
GI50 [18]: 18.1 µM
TGI [18]: 34 µM
GI50 [19]: 16.8 µM
TGI [19]: 38.4 µM
GI50 [20]: 10.4 µM
TGI [20]: 51.3 µM
GI50 [21]: 3.78 µM
TGI [21]: 21 µM
GI50 [22]: 5.46 µM
TGI [22]: 19.6 µM
GI50 [23]: 4.77 µM
TGI [23]: 22.2 µM
GI50 [24]: 11.4 µM
TGI [24]: 25.2 µM
GI50 [25]: 14.6 µM
TGI [25]: 32.1 µM
GI50 [26]: 12.9 µM
TGI [26]: 26.4 µM
GI50 [27]: 13.8 µM
TGI [27]: 26.9 µM
GI50 [28]: 15.8 µM
TGI [28]: 37.6 µM
GI50 [29]: 13.5 µM
TGI [29]: 32.4 µM
GI50 [30]: 3.79 µM
TGI [30]: 18.2 µM
GI50 [31]: 11.2 µM
TGI [31]: 27.3 µM
GI50 [32]: 13.2 µM
TGI [32]: 29.1 µM
GI50 [33]: 14.6 µM
TGI [33]: 39.8 µM
GI50 [34]: 14.7 µM
TGI [34]: 32.6 µM
GI50 [35]: 8.54 µM
TGI [35]: 24.5 µM
GI50 [36]: 8.01 µM
TGI [36]: 23.2 µM
GI50 [37]: 13.2 µM
TGI [37]: 30.4 µM
GI50 [38]: 3.91 µM
TGI [38]: 17.7 µM
GI50 [39]: 13 µM
TGI [39]: 28.5 µM
GI50 [40]: 12.4 µM
TGI [40]: 32.2 µM
GI50 [41]: 5.21 µM
TGI [41]: 21.7 µM
GI50 [42]: 13.1 µM
TGI [42]: 26.3 µM
GI50 [43]: 16 µM
TGI [43]: 30.9 µM
GI50 [44]: 9.05 µM
TGI [44]: 22.6 µM
GI50 [45]: 13 µM
TGI [45]: 29.8 µM
GI50 [46]: 18.4 µM
TGI [46]: 40.1 µM
GI50 [47]: 11.2 µM
TGI [47]: 25.5 µM
GI50 [48]: 14.1 µM
TGI [48]: 29.5 µM
GI50 [49]: 12.6 µM
TGI [49]: 30.3 µM
GI50 [50]: 8.5 µM
TGI [50]: 23.9 µM
GI50 [51]: 11.8 µM
TGI [51]: 26.7 µM
GI50 [52]: 16.3 µM
TGI [52]: 43.4 µM
GI50 [53]: 12.5 µM
TGI [53]: 29.8 µM
GI50 [54]: 12 µM
TGI [54]: 28.8 µM
GI50 [55]: 7.72 µM
TGI [55]: 68.8 µM
GI50 [56]: 11.8 µM
TGI [56]: 27.2 µM
GI50 [57]: 16 µM
TGI [57]: 33.3 µM
GI50 [58]: 11.8 µM
TGI [58]: 27.4 µM
